Experiment in all cases: GTPase panel nucleotide binding inhibition – biochemical, bead flow cytometry, Mg non-chelator buffer, round 2, SAR follow-up (AID 588622)
Holding throughout (conditions): bead-based flow cytometry multiplex GTP binding; for % response (lower = inhibition): at 100 µM (top of the series)
In general terms: Flow cytometry measures light scatter and fluorescence of single cells or particles in a stream.

Assay [1] deals with Cdc42WT.
Assay [2] addresses Rab7.
For assay [3], the target named is RacACT.
For assay [4], the target named is RacWT.
The target in assay [5] is RhoWT.

Activity calls are given as the source filed them. No rule for the calls is given here.

Usually EC50 stands for the concentration at which the effect is half-maximal.

`COc1ccc(C(=O)NC(=S)Nc2sc3c(c2C(=O)O)CC(C)(C)OC3)cc1`: the EC50 was 203 nM in assay [1]; 214 nM in assay [2]; 243 nM in assay [3]; 197 nM in assay [4]; 213 nM in assay [5].

Regarding `Cc1ccc(C(=O)NC(=S)Nc2sc3c(c2C(=O)O)CC(C)(C)OC3)cc1`, the EC50 in assay [1] is 109 nM; in assay [2], 97 nM; in assay [3] it was 139 nM; in assay [4] it was 147 nM; in assay [5], 131 nM.

With `Cc1cccc(C(=O)NC(=S)Nc2sc3c(c2C(=O)O)CC(C)(C)OC3)c1`, the EC50 in assay [1] was 1680 nM; in assay [2], 325 nM; in assay [5] it was 1450 nM. The “% response (lower = inhibition)” value in assay [3] and in assay [4] was “inactive” throughout.

As for `CC1(C)Cc2c(sc(NC(=S)NC(=O)C3CCCCC3)c2C(=O)O)CO1`, the EC50 in assay [1] is 660 nM; in assay [2], 461 nM; in assay [3], 397 nM; in assay [4] it was 495 nM; in assay [5], 814 nM.

For `COc1ccccc1C(=O)NC(=S)Nc1sc2c(c1C(=O)O)CC(C)(C)OC2`, the “% response (lower = inhibition)” value in assay [1], in assay [2], in assay [3], in assay [4] and in assay [5] was “inactive” throughout.

For the compound `CC(C)(C)C1Cc2c(sc(NC(=S)NC(=O)c3ccccc3)c2C(=O)O)CO1` (stereo not given), the EC50 in assay [1] was 164 nM; in assay [2] it was 218 nM; in assay [3], 146 nM; in assay [4] it was 139 nM; in assay [5] it was 197 nM.

Turning to `O=C(NC(=S)Nc1sc2c(c1C(=O)O)CC1(CCCC1)OC2)c1ccccc1`, the EC50 in assay [1] was 50 nM; in assay [2], 33 nM; in assay [3], 80 nM; in assay [4] it was 56 nM; in assay [5] it was 101 nM.

With `CC1(C)Cc2c(sc(NC(=S)NC(=O)c3cccc(F)c3)c2C(=O)O)CO1`, the EC50 in assay [1] was 689 nM; in assay [2] it was 423 nM; in assay [4] it was 491 nM; in assay [5], 599 nM. In assay [3], the “% response (lower = inhibition)” value is “inactive”.

Consider `CC1(C)Cc2c(sc(NC(=S)NC(=O)c3ccco3)c2C(=O)O)CO1`, for which the EC50 in assay [1] is 62 nM; in assay [2] it was 82 nM; in assay [3], 59 nM; in assay [4], 59 nM; in assay [5], 92 nM.

`CC1(C)Cc2c(sc(NC(=S)NC(=O)c3ccc(F)cc3)c2C(=O)O)CO1`: the concentration giving a half-maximal response (EC50) in assay [1] is 171 nM; in assay [2] it was 77 nM; in assay [3], 133 nM; in assay [4] it was 147 nM; in assay [5] it was 112 nM.

For `CCC1(C)Cc2c(sc(NC(=S)NC(=O)c3ccccc3)c2C(=O)O)CO1` (stereo not given), the EC50 in assay [1] is 51 nM; in assay [2], 35 nM; in assay [3], 46 nM; in assay [4], 53 nM; in assay [5] it was 46 nM.

As for `CC1(C)Cc2c(sc(NC(=S)NC(=O)c3ccccc3Br)c2C(=O)O)CO1`, the EC50 in assay [1] is 1560 nM; in assay [2], 1250 nM; in assay [3], 1180 nM; in assay [5], 1330 nM. Besides, the “% response (lower = inhibition)” value in assay [4] is “inactive”.

Regarding `CC1(C)Cc2c(sc(NC(=S)Nc3ccccc3)c2C(=O)O)CO1`, the “% response (lower = inhibition)” value in assay [1], in assay [3], in assay [4] and in assay [5] was “inactive” throughout. Further, the EC50 in assay [2] is 4990 nM.

With `CC1(C)Cc2c(sc(NC(=S)NC(=O)c3ccc(Br)cc3)c2C(=O)O)CO1`, the EC50 was 539 nM in assay [1]; 431 nM in assay [2]; 455 nM in assay [3]; 391 nM in assay [4]; 475 nM in assay [5].

In the case of `CC1(C)Cc2c(sc(NC(=S)NC(=O)c3ccccc3F)c2C(=O)O)CO1`, the EC50 in assay [1] was 443 nM; in assay [2] it was 316 nM; in assay [3] it was 455 nM; in assay [4] it was 452 nM; in assay [5], 431 nM.

On to `Cc1ccccc1C(=O)NC(=S)Nc1sc2c(c1C(=O)O)CC(C)(C)OC2`, for which the EC50 in assay [1] was 352 nM; in assay [2], 523 nM; in assay [3], 370 nM; in assay [4], 438 nM; in assay [5] it was 486 nM.

In the case of `CC1(C)Cc2c(sc(NC(=S)NC(=O)c3cccc(Br)c3)c2C(=O)O)CO1`, the “% response (lower = inhibition)” value in assay [1], in assay [2], in assay [3], in assay [4] and in assay [5] was “inactive” throughout.

In the case of `COc1cccc(C(=O)NC(=S)Nc2sc3c(c2C(=O)O)CC(C)(C)OC3)c1`, the EC50 is 251 nM in assay [1], 323 nM in assay [2] and 292 nM in assay [5]. The “% response (lower = inhibition)” value in assay [3] and in assay [4] was “inactive” in each case.

As to `CC1(C)CCc2sc(NC(=S)NC(=O)c3ccccc3)c(C(=O)O)c2C1`, the EC50 in assay [1] is 62 nM; in assay [2], 69 nM; in assay [3], 48 nM; in assay [4], 48 nM; in assay [5] it was 62 nM.

Regarding `CC1(C)Cc2c(sc(NC(=S)NC(=O)c3cccs3)c2C(=O)O)CO1`, the EC50 in assay [1] was 30 nM; in assay [2] it was 25 nM; in assay [3] it was 27 nM; in assay [4], 29 nM; in assay [5], 33 nM.

(Values after PubChem BioAssay AID588622 (NMMLSC, 2011).)
